PMC11915372, “Identification of a Series Containing a Pentafluorophenyl Moiety That Targets Pks13 to Inhibit Growth of Mycobacterium tuberculosis” (ACS Infectious Diseases, 2025)
pIC50: −log10 of the molar value. Values after ≈ are worked out from the molar mass of the structure shown. Like-named read-outs stand apart in the source and are kept apart here.

Tests used:
[1] = assay type: in vitro ADME, mouse
[2] = assay type: in vitro ADME, mouse; remark: listed apart in the source
HepG2 cells = test: HepG2 cytotoxicity; conditions: Homo sapiens, HepG2, read-out: HepG2 inhibitory concentration (IC50)
From the text: Assays to establish HepG2 cytotoxicity, in vitro microsomal/hepatocyte metabolic stability, aqueous kinetic solubility, and in vivo pharmacokinetic profiles were all performed as previously described.[15],[35]−[37]

M. tuberculosis (H37Rv) = test: microbe, parasite or virus in culture; assay type: cell-based, Mycobacterium tuberculosis
physchem [3] = assay type: physicochemical
physchem [4] = conditions: pH 7.4
[5] = Mycobacterium tuberculosis, H37RV, read-out: H37Rv MIC A
[6] = Mycobacterium tuberculosis, H37RV, read-out: H37Rv MIC B
[7] = Mycobacterium tuberculosis, H37RV, read-out: Wk2_7H9/DPPC/ casitone/ Tyloxapol MIC
[8] = Mycobacterium tuberculosis, H37RV, read-out: Wk2_ 7H9/DPPC/ cholesterol/BSA/ Tyloxapol MIC
[9] = Mycobacterium tuberculosis, H37RV, read-out: Wk2_7H9/glucose/ BSA/Tyloxapol MIC
[10] = Mycobacterium tuberculosis, H37RV, read-out: Wk2_7H9/glucose/ casitone/ Tyloxapol MIC
[11] = pH 7.4, aqueous buffer, kinetic from dmso stock
[12] = intrinsic clearance (Cli), CD1 mouse liver microsomes, Tables 1-4
[13] = kinetic solubility in water, read-out: Kin. Sol
[14] = pH 7.4, aqueous buffer, kinetic from dmso stock, pH7.4, read-out: Kinetic Solubility pH7.4

Compound	Hepatocyte Cli ([1]; mouse)	Mouse Heps Cl ([1]; mouse, hepatocytes)	Microsomal Cli ([2]; CD1, mouse)	Mouse micro Cl ([2]; mouse, microsomes)	pIC50 (HepG2 cells)	MIC (M. tuberculosis (H37Rv); [5])	MIC (M. tuberculosis (H37Rv); [6])	MIC (M. tuberculosis (H37Rv); [7])	MIC (M. tuberculosis (H37Rv); [8])	MIC (M. tuberculosis (H37Rv); [9])	MIC (M. tuberculosis (H37Rv); [10])	solubility kinetic (physchem [3]; [11])	solubility kinetic (physchem [3]; read-out: Kin. Sol)	chromatographic logD (physchem [4])	also measured
CCOC(=O)c1nc(COC)oc1NC(=O)c1c(F)c(F)c(F)c(F)c1F [Compound 33, CCOC(=O)c1nc(oc1NC(=O)c1c(c(c(c(c1F)F)F)F)F)COC]	7.5 mL/min/g	7.5 mL/min/g	<0.5 mL/min/g	<0.5 mL/min/g	< 4.00	1.2 µM (≈ 0.473 µg/mL)	2.3 µM (≈ 0.907 µg/mL)	1.2 µM (≈ 0.473 µg/mL)	2.3 µM (≈ 0.907 µg/mL)	2.3 µM (≈ 0.907 µg/mL)	1.2 µM (≈ 0.473 µg/mL)	227 µM (≈ 89.5 µg/mL)	227 µM (≈ 89.5 µg/mL)	1.6	
CCOC(=O)c1nc(C)oc1NC(=O)c1c(F)cc(F)c(F)c1F [Compound 27, CCOC(=O)c1nc(oc1NC(=O)c1c(cc(c(c1F)F)F)F)C]	3.4 mL/min/g	3.4 mLmin/g	0.8 mL/min/g	0.80 mLmin/g	< 4.00	3.1 µM (≈ 1.07 µg/mL)	4.7 µM (≈ 1.63 µg/mL)	3.1 µM (≈ 1.07 µg/mL)	4.7 µM (≈ 1.63 µg/mL)	4.7 µM (≈ 1.63 µg/mL)	2.3 µM (≈ 0.796 µg/mL)	232 µM (≈ 80.3 µg/mL)	232 µM (≈ 80.3 µg/mL)	1.9	
CCOC(=O)c1nc(C)oc1NC(=O)c1c(F)c(F)c(F)c(F)c1F [Compound 24, CCOC(=O)c1nc(oc1NC(=O)c1c(c(c(c(c1F)F)F)F)F)C]	12 mL/min/g		<0.5 mL/min/g		< 4.00	0.27 µM (≈ 0.0983 µg/mL)	0.6 µM (≈ 0.219 µg/mL)	0.271 µM (≈ 0.0987 µg/mL)	0.6 µM (≈ 0.219 µg/mL)	0.434 µM (≈ 0.158 µg/mL)	0.168 µM (≈ 0.0612 µg/mL)	204 µM (≈ 74.3 µg/mL)	204 µM (≈ 74.3 µg/mL)	1.8	MIC (M. tuberculosis (H37Rv); read-out: H37Rv MIC A): 0.3 µM (≈ 0.109 µg/mL)
COC(=O)c1cnccc1NC(=O)c1c(F)c(F)c(F)c(F)c1F [Compound 16, COC(=O)c1cnccc1NC(=O)c1c(c(c(c(c1F)F)F)F)F]	>50 mL/min/g	>50 mLmin/g	20 mL/min/g	20 mLmin/g	4.19	0.1 µM (≈ 0.0346 µg/mL)	0.6 µM (≈ 0.208 µg/mL)	0.1 µM (≈ 0.0346 µg/mL)	0.6 µM (≈ 0.208 µg/mL)	0.3 µM (≈ 0.104 µg/mL)	0.15 µM (≈ 0.0519 µg/mL)	112 µM (≈ 38.8 µg/mL)	112 µM (≈ 38.8 µg/mL)	3.2	
COC(=O)c1nn(C)cc1NC(=O)c1c(F)c(F)c(F)c(F)c1F [Compound 19, COC(=O)c1nn(cc1NC(=O)c1c(c(c(c(c1F)F)F)F)F)C]					< 4.00	0.15 µM (≈ 0.0524 µg/mL)		0.15 µM (≈ 0.0524 µg/mL)		0.3 µM (≈ 0.105 µg/mL)	0.2 µM (≈ 0.0698 µg/mL)			2.7	Mouse Heps Cl ([1]; intrinsic clearance (Cli), mouse hepatocytes, Tables 1-4): >50 mLmin/g; Hepatocyte Cli ([1]; supplement data table): >50 mL/min/g; Mouse micro Cl [2, 12]: 23 mLmin/g; Microsomal Cli ([2]; supplement data table): 23 mL/min/g; solubility kinetic (physchem [3]; [13]): 55 µM (≈ 19.2 µg/mL); solubility kinetic (physchem [3]; [14]): 55 µM (≈ 19.2 µg/mL)
CCOC(=O)c1c(NC(=O)c2c(F)c(F)c(F)c(F)c2F)ncn1C [Compound 21, CCOC(=O)c1c(ncn1C)NC(=O)c1c(c(c(c(c1F)F)F)F)F]					< 4.00	2.3 µM (≈ 0.835 µg/mL)	6.3 µM (≈ 2.29 µg/mL)	2.3 µM (≈ 0.835 µg/mL)	6.3 µM (≈ 2.29 µg/mL)	4.7 µM (≈ 1.71 µg/mL)	1.6 µM (≈ 0.581 µg/mL)			2.2	Mouse micro Cl [2, 12]: 8.6 mLmin/g; Microsomal Cli ([2]; supplement data table): 8.6 mL/min/g; loss of MIC potency (M. tuberculosis (H37Rv); relative to comparator of the series (21 vs thiophenes; 42 vs 24)): 10 fold; solubility kinetic (physchem [3]; [13]): 203 µM (≈ 73.7 µg/mL); solubility kinetic (physchem [3]; [14]): 203 µM (≈ 73.7 µg/mL)
Cc1nc(C(=O)OC(C)(C)C)c(NC(=O)c2c(F)c(F)c(F)c(F)c2F)o1 [Compound 36, Cc1nc(c(o1)NC(=O)c1c(c(c(c(c1F)F)F)F)F)C(=O)OC(C)(C)C]	26 mL/min/g	26 mL/min/g	1.1 mL/min/g	1.1 mL/min/g	< 4.00	0.1 µM (≈ 0.0392 µg/mL)	0.4 µM (≈ 0.157 µg/mL)	0.1 µM (≈ 0.0392 µg/mL)	0.4 µM (≈ 0.157 µg/mL)	0.3 µM (≈ 0.118 µg/mL)	0.1 µM (≈ 0.0392 µg/mL)	127 µM (≈ 49.8 µg/mL)	127 µM (≈ 49.8 µg/mL)	2.8	
Cc1nc(C(=O)O)c(NC(=O)c2c(F)c(F)c(F)c(F)c2F)o1 [Compound 38, Cc1nc(c(o1)NC(=O)c1c(c(c(c(c1F)F)F)F)F)C(=O)O]	1.3 mL/min/g	1.3 mL/min/g	<0.5 mL/min/g	<0.5 mL/min/g	< 4.00	> 50 µM	> 50 µM	5.4 µM (≈ 1.82 µg/mL)	> 50 µM	43 µM (≈ 14.5 µg/mL)	7.7 µM (≈ 2.59 µg/mL)	250 µM (≈ 84 µg/mL)	250 µM (≈ 84 µg/mL)	0.78	
Cc1nc(C(=O)N(C)C)c(NC(=O)c2c(F)c(F)c(F)c(F)c2F)o1 [Compound 40, CN(C)C(=O)c1nc(oc1NC(=O)c1c(c(c(c(c1F)F)F)F)F)C]	7.3 mL/min/g	7.3 mL/min/g	0.846 mL/min/g	0.85 mL/min/g	< 4.00	12.5 µM (≈ 4.54 µg/mL)	19 µM (≈ 6.9 µg/mL)	12.5 µM (≈ 4.54 µg/mL)	19 µM (≈ 6.9 µg/mL)	19 µM (≈ 6.9 µg/mL)	9.4 µM (≈ 3.41 µg/mL)	242 µM (≈ 87.9 µg/mL)	242 µM (≈ 87.9 µg/mL)	1.4	
CCOC(=O)c1nc(C)oc1NCc1c(F)c(F)c(F)c(F)c1F [Compound 29, CCOC(=O)c1nc(oc1NCc1c(c(c(c(c1F)F)F)F)F)C]	>50 mL/min/g	>50 mLmin/g	32 mL/min/g	32 mLmin/g	< 4.00	> 50 µM	> 50 µM	> 50 µM	> 50 µM	> 50 µM	> 50 µM	23 µM (≈ 8.06 µg/mL)	23 µM (≈ 8.06 µg/mL)	3.2	
COC(=O)c1nc(C)oc1NC(=O)c1c(F)c(F)c(F)c(F)c1F [Compound 23, COC(=O)c1nc(oc1NC(=O)c1c(c(c(c(c1F)F)F)F)F)C]	8.1 mL/min/g	8.1 mLmin/g	<0.5 mL/min/g	<0.5 mLmin/g	< 4.00	0.6 µM (≈ 0.21 µg/mL)	1.2 µM (≈ 0.42 µg/mL)	0.6 µM (≈ 0.21 µg/mL)	1.2 µM (≈ 0.42 µg/mL)	1.2 µM (≈ 0.42 µg/mL)	0.6 µM (≈ 0.21 µg/mL)	237 µM (≈ 83 µg/mL)	237 µM (≈ 83 µg/mL)	1.4	
COC(=O)c1c(C)noc1NC(=O)c1c(F)c(F)c(F)c(F)c1F [Compound 22, COC(=O)c1c(noc1NC(=O)c1c(c(c(c(c1F)F)F)F)F)C]	46 mL/min/g	45.6 mLmin/g	3.8 mL/min/g	3.8 mLmin/g	< 4.00	0.97 µM (≈ 0.34 µg/mL)	3.1 µM (≈ 1.09 µg/mL)	1 µM (≈ 0.35 µg/mL)	3.1 µM (≈ 1.09 µg/mL)	2.3 µM (≈ 0.805 µg/mL)	0.8 µM (≈ 0.28 µg/mL)	242 µM (≈ 84.7 µg/mL)	242 µM (≈ 84.7 µg/mL)	1.5	
COC(=O)c1ccncc1NC(=O)c1c(F)c(F)c(F)c(F)c1F [Compound 18, COC(=O)c1ccncc1NC(=O)c1c(c(c(c(c1F)F)F)F)F]			27 mL/min/g	27 mLmin/g	< 4.00	4.7 µM (≈ 1.63 µg/mL)	12.5 µM (≈ 4.33 µg/mL)	4.7 µM (≈ 1.63 µg/mL)	12.5 µM (≈ 4.33 µg/mL)	12.5 µM (≈ 4.33 µg/mL)	4.7 µM (≈ 1.63 µg/mL)	109 µM (≈ 37.7 µg/mL)	109 µM (≈ 37.7 µg/mL)	2.8	
